Experimental data as given in US9540356B2 (priority 2012, dated 2017).

Experiments:
HeLa cells [1] = assay type: cell-based, human
[2] = system: retrograde transport of Shiga toxin subunit B (StxB); assay type: cell-based
HeLa cells [3] = experiment: cells; assay type: cell-based; details: Homo sapiens

For `CCc1ccc(C2Nc3ccccc3C(=O)N2c2ccccc2)s1` (stereo not shown) [Compound 7, 2-(5-Ethylthiophen-2-yl)-3-phenyl-2,3-dihydroquinazolin-4(1H)-one], the “R (Stx), protective index” value (HeLa cells [1]) was 120 and the “retrograde transport, % control” value [2] was 13.5%.

`O=C1c2ccccc2NC(c2ccc(Br)s2)N1c1ccccc1` (stereo not shown) [Compound 9, 2-(5-Bromothiophen-2-yl)-3-phenyl-2,3-dihydroquinazolin-4(1H)-one] was tested, and the IC50 (HeLa cells [3]) was 13.7 µM and the “R (Stx), protective index” value (HeLa cells [1]) was 27.9.

For `O=C1c2ccccc2NC(c2ccc(-c3ccccc3)s2)N1c1ccccc1` (stereo not shown) [Compound 13, 3-Phenyl-2-(5-phenylthiophen-2-yl)-2,3-dihydroquinazolin-4(1H)-one], the “R (Stx), protective index” value (HeLa cells [1]) was 153 and the “retrograde transport, % control” value [2] was 13.1%.

In the case of `CSc1ccc(C2Nc3ccccc3C(=O)N2c2ccccc2)s1` (stereo not shown) [Compound 17, 2-(5-(Methylthio)thiophen-2-yl)-3-phenyl-2,3-dihydroquinazolin-4(1H)-one], the “R (Stx), protective index” value (HeLa cells [1]) is reported as 43 and the “retrograde transport, % control” value [2] is reported as 22.8%.

For `O=C1c2ccccc2NC(c2ccc(-c3cccs3)s2)N1c1ccccc1` (stereo not shown) [Compound 18, 2-([2,2′-Bithiophen]-5-yl)-3-phenyl-2,3-dihydroquinazolin-4(1H)-one], the “R (Stx), protective index” value (HeLa cells [1]) was 50 and the “retrograde transport, % control” value [2] was 17.1%.

`Cc1ccc(C2N(C)c3ccccc3C(=O)N2c2ccccc2Cl)s1` (stereo not shown) [Compound 54, 3-(2-Chlorophenyl)-1-methyl-2-(5-methylthiophen-2-yl)-2,3-dihydroquinazolin-4(1H)-one] was tested, and the IC50 (HeLa cells [3]) was 8.2 µM and the “R (Stx), protective index” value (HeLa cells [1]) was 27.

In the case of `Cc1ccc(C2N(C)c3ccccc3C(=O)N2c2ccccc2I)s1` (stereo not shown) [Compound 55, 3-(2-Iodophenyl)-1-methyl-2-(5-methylthiophen-2-yl)-2,3-dihydroquinazolin-4(1H)-one], the IC50 (HeLa cells [3]) is reported as 5.4 µM and the “R (Stx), protective index” value (HeLa cells [1]) is reported as 25.

`COc1ccccc1N1C(=O)c2ccccc2N(C)C1c1ccc(C)s1` (stereo not shown) [Compound 56, 3-(2-Methoxyphenyl)-1-methyl-2-(5-methylthiophen-2-yl)-2,3-dihydroquinazolin-4(1H)-one] was tested, and the IC50 (HeLa cells [3]) was 5.4 µM and the “R (Stx), protective index” value (HeLa cells [1]) was 26.

In the case of `CSc1ccccc1N1C(=O)c2ccccc2N(C)C1c1ccc(C)s1` (stereo not shown) [Compound 57, 1-Methyl-3-(2-(methylthio)phenyl)-2-(5-methylthiophen-2-yl)-2,3-dihydroquinazolin-4(1H)-one], the IC50 (HeLa cells [3]) is reported as 3.8 µM and the “R (Stx), protective index” value (HeLa cells [1]) is reported as 25.

In the case of `Cc1ccc(C2N(C)c3ccccc3C(=O)N2c2ccccc2F)s1` (stereo not shown) [Compound 58, 3-(2-Fluorophenyl)-1-methyl-2-(5-methylthiophen-2-yl)-2,3-dihydroquinazolin-4(1H)-one], the IC50 (HeLa cells [3]) is reported as 5.5 µM and the “R (Stx), protective index” value (HeLa cells [1]) is reported as 25.

In the case of `Cc1ccc(C2N(C)c3ccccc3C(=O)N2c2ccccc2-c2ccccc2)s1` (stereo not shown) [Compound 59, 3-([1,1′-Biphenyl]-2-yl)-1-methyl-2-(5-methylthiophen-2-yl)-2,3-dihydroquinazolin-4(1H)-one], the IC50 (HeLa cells [3]) is reported as 3.7 µM and the “R (Stx), protective index” value (HeLa cells [1]) is reported as 27.

`C=CCOC(=O)c1ccccc1N1C(=O)c2ccccc2N(C)C1c1ccc(C)s1` (stereo not shown) [Compound 67, Allyl 2-(1-methyl-2-(5-methylthiophen-2-yl)-4-oxo-1,4-dihydroquinazolin-3(2H)-yl)benzoate] showed an IC50 (HeLa cells [3]) of 13 µM.

`COCCOc1ccccc1N1C(=O)c2ccccc2N(C)C1c1ccc(C)s1` (stereo not shown) [Compound 68, 3-(2-(2-Methoxyethoxy)phenyl)-1-methyl-2-(5-methylthiophen-2-yl)-2,3-dihydroquinazolin-4(1H)-one] showed an IC50 (HeLa cells [3]) of 4.2 µM.

For `Cc1ccc(C2N(C)c3ccccc3C(=O)N2c2ccccc2C(=O)O)s1` (stereo not shown) [Compound 69, 2-(1-Methyl-2-(5-methylthiophen-2-yl)-4-oxo-1,4-dihydroquinazolin-3(2H)-yl)benzoic acid], the IC50 (HeLa cells [3]) was 11.2 µM.
